# Experimental data published in patent publication US20080097385A1, “Therapeutic Adjuncts to Enhance the Organ Protective Effects of Postconditioning” (priority 2004, published 2008).
# Like-named read-outs stand apart in the source and are kept apart here.
# Key:
# [1] = tested on: anesthetized open-chest rats (LCA occlusion/reperfusion); assay: Neutrophil (PMN) accumulation (myeloperoxidase activity) in the area at risk, rat LCA occlusion/reperfusion; assay type: in vivo; conditions: postconditioning + antagonist, postconditioning 1.0±0.2, Control 2.2±0.4
# Procedure: Adenosine is a mediator of the cardioprotection of postconditioning. Isolated-perfused mouse hearts were subjected to 20 min global ischemia (I) and 30 min reperfusion (R) with or without Postcon (6 cycles of 10 sec. R & occlusion). Intravascular purines in coronary effluent were analyzed by HPLC. To determine whether endogenous adenosine played a physiological role in postconditioning, the left coronary artery (LCA) was occluded for 30 min and reperfused for 3 hours in anesthetized open-chest rats. The rats were randomly divided into six groups (n=8 each): Control (no intervention); postconditioning (3 cycles of 10-s R followed by 10-s LCA I before 3 hours R); 8-SPT (subtype non-selective adenosine receptor antagonist, 10 mg/kg), or ZW241385 (A2a receptor antagonist, 0.2 mg/kg), was given 5 min before R with or without postconditioning. In mouse hearts, postconditioning decreased effluent [adenosine] at 2 min R (58±5* vs 155±16 nM/min/g), and improved contractile function (LV developed pressure 32±7* vs 16±2 mmHg) and end-diastolic pressure (27±3* vs 36±3 mmHg) at 5 min R which persisted at 30 min R. In in vivo rats, postconditioning reduced infarct size (TTC) vs the control group (40±3.1%* vs 52±2.2%). 8-SPT (51±2.5%) or ZM241385 alone (50±2.1%) without postconditioning had no effect on infarct size. […]
# [2] = tested on: anesthetized open-chest rats (LCA occlusion/reperfusion); assay: Anesthetized open-chest rats: LCA occlusion 30 min, reperfusion 3 h; infarct size (TTC) with adenosine receptor antagonists with or without postconditioning; assay type: in vivo; conditions: rat
# Procedure: Adenosine is a mediator of the cardioprotection of postconditioning. Isolated-perfused mouse hearts were subjected to 20 min global ischemia (I) and 30 min reperfusion (R) with or without Postcon (6 cycles of 10 sec. R & occlusion). Intravascular purines in coronary effluent were analyzed by HPLC. To determine whether endogenous adenosine played a physiological role in postconditioning, the left coronary artery (LCA) was occluded for 30 min and reperfused for 3 hours in anesthetized open-chest rats. The rats were randomly divided into six groups (n=8 each): Control (no intervention); postconditioning (3 cycles of 10-s R followed by 10-s LCA I before 3 hours R); 8-SPT (subtype non-selective adenosine receptor antagonist, 10 mg/kg), or ZW241385 (A2a receptor antagonist, 0.2 mg/kg), was given 5 min before R with or without postconditioning. In mouse hearts, postconditioning decreased effluent [adenosine] at 2 min R (58±5* vs 155±16 nM/min/g), and improved contractile function (LV developed pressure 32±7* vs 16±2 mmHg) and end-diastolic pressure (27±3* vs 36±3 mmHg) at 5 min R which persisted at 30 min R. In in vivo rats, postconditioning reduced infarct size (TTC) vs the control group (40±3.1%* vs 52±2.2%). 8-SPT (51±2.5%) or ZM241385 alone (50±2.1%) without postconditioning had no effect on infarct size. The infarct-sparing effect of postconditioning was abrogated by 8-SPT and ZM241385 (50±1.8% and 49±2.6%). Neutrophil (PMN) accumulation (myeloperoxidase activity) in the area at risk was less in postconditioning vs Control (1.0±0.2* vs 2.2±0.4 U/100 g protein); adenosine receptor antagonists blocked the reduction of PMN accumulation in postconditioning (postconditioning+8-SPT 2.1±0.2; postconditioning+ZM241385 1.6+0.2).
# [3] = tested on: rat model of myocardial infarction; assay: Rat model of myocardial infarction: LCA occlusion 30 min, reperfusion 3 h; infarct size with cariporide with or without postconditioning; assay type: in vivo
# Procedure: Cross-hatched bar=time when the sodium-hydrogen exchange inhibitor (NHE-1), cariporide is administered intravenously. Vertical hatched bar=postconditioning algorithm. Control (n=8); occlusion of the left coronary artery (LCA) for 30 min (dark bar), was followed by 3 h of reperfusion (open bar). Post-con (n=8); 10 of full reperfusion (R, open bar) and 10 s of re-occlusion ischemia (I, dark bar) were repeated for three cycles. NHE(1) (n=8); cariporide (1 mg/kg) was injected 5 min prior to reperfusion, followed by unbridled R. NHE(1)+Post-con (n=8); cariporide followed by Post-con. Delay (D)-NHE(1) (n=8); cariporide was injected for 5 min after 1 min of full unbridled reperfusion. Post-con+D-NHE(1) (n=8); Post-con followed by injecting cariporide for 5 min. […] Infarct size is expressed as a percentage of AN and AAR. In all groups, infarct size decreased compared to that of Control. […] Post-con=postconditioning. Values are means ±SEM. Postconditioning can be enhanced by pharmacological means which capture the protective actions of the proximal mediators such as adenosine and opioids. In a rat model of myocardial infarction, it can be shown that the dual approach of attenuating reperfusion injury by applying postconditioning in the presence of a sodium-hydrogen exchange (NHE-1) inhibitor during early reperfusion achieves greater infarct size reduction than either intervention alone. Specifically, in an anesthetized rat model, the left coronary artery (LCA) was occluded for 30 min of ischemia (I) and reperfused for 3 hours. Rats were randomly divided into six groups (n=8 each) (FIG. 10): Control: no intervention at reperfusion; Postconditioning: three cycles of 10-s reperfusion followed by 10-s re-occlusion were applied during the first minute of reperfusion; NHE(1): cariporide (1 mg/kg) was infused 5 min before reperfusion, with or without postconditioning; Delayed (D)-NHE(1): a 5-minute infusion of cariporide was begun 1 min after onset of reperfusion equivalent to postconditioning period; Post-con+D-NHE(1): Completion of postconditioning was followed immediately by cariporide infusion for 5 min. […] When NHE(1) preceded postconditioning as a reperfusion intervention, infarct size was not further reduced (45±2%*) compared to either intervention alone. However, an additive reduction in infarct size was achieved when postconditioning preceded NHE(1) inhibitor at reperfusion (Post-con+D-N-HE(1), 34±2%). Thus, infarct size reduction by postconditioning is enhanced by NHE inhibition at reperfusion when postconditioning precedes cariporide administration.
# [4] = tested on: rabbit model of myocardial infarction; conditions: cited from earlier work
# [5] = antagonist alone, given 5 min before reperfusion, without postconditioning, control 52±2.2%
# [6] = antagonist given 5 min before reperfusion, with postconditioning, postconditioning alone 40±3.1%
smiles,measurement,setting,value
Cn1c(=O)c2[nH]c(-c3ccc(S(=O)(=O)O)cc3)nc2n(C)c1=O [8-SPT],neutrophil (PMN) accumulation (myeloperoxidase activity) in the area at risk,[1],2.1±0.2 U/100 g protein
same,infarct size (TTC),[2]; [5],51±2.5%
same,infarct size (TTC),[2]; [6],50±1.8%
Nc1nc(NCCc2ccc(O)cc2)nc2nc(-c3ccco3)nn12 [ZM241385],neutrophil (PMN) accumulation (myeloperoxidase activity) in the area at risk,[1],1.6+0.2 U/100 g protein
same,infarct size (TTC),[2]; [5],50±2.1%
same,infarct size (TTC),[2]; [6],49±2.6%
CC(C)c1ccc(C(=O)NC(=N)N)cc1S(C)(=O)=O [cariporide],infarct size (AN as percentage of AAR),"[3]; NHE(1) alone: cariporide 1 mg/kg infused 5 min before reperfusion, no postconditioning",43±2%
same,infarct size (AN as percentage of AAR),"[3]; NHE(1)+Post-con: cariporide 1 mg/kg 5 min before reperfusion, followed by postconditioning",45±2%
same,decrease in infarct size compared with postconditioning alone,"[3]; Post-con+D-NHE(1) group, FIG. 11",significantly greater than postconditioning alone
same,infarct size (AN as percentage of AAR),[3]; Post-con+D-NHE(1): postconditioning followed immediately by 5 min cariporide infusion,34±2%
FC(F)OC(Cl)C(F)(F)F (stereo not shown) [isoflurane],infarct size,"[4]; 0.5 minimum alveolar concentration isoflurane alone, control 41±2%",43±3 % of the left ventricular area at risk
same,infarct size,"[4]; 1.0 minimum alveolar concentration isoflurane alone, control 41±2%",21±2 % of the left ventricular area at risk
same,infarct size,[4]; combined postconditioning (10 s) and 0.5 minimum alveolar concentration isoflurane,17±5 % of the left ventricular area at risk
